Assay [1] is classed as in vivo, Sprague Dawley rats. The settings on record: 2 weeks. The protocol: The compounds of the present invention are readily adapted to clinical use as anti-obesity agents, insulin sensitizing agents, hyperinsulinemia-reversing agents, and hepatic steatosis-reversing agents. Such activity was determined by assessing the amount of test compound that reduces body weight and percentage body fat, reduces plasma insulin levels, blunts the rise and/or accelerates the reduction in plasma insulin and glucose levels in response to an oral glucose challenge, and reduces hepatic lipid content relative to a control vehicle without test compound in mammals. Sprague Dawley rats were fed either chow, a diet high in sucrose (for example AIN76A rodent diet; Research diets Inc. Cat #10001) or a diet high in fat (for example Research diets Inc. Cat #12451), for from 3-8 weeks prior to and during test compound administration.
For example, after a 3-8 week period of ad libitum feeding of either a chow, high-fat, or high-sucrose diet, animals that continued to receive the diet were treated for 1-8 weeks with test compound administered either by oral gavage in water or saline or water or saline containing 0.5% methylcelluose using a Q.D., B.I.D, or T.I.D. dosing regimen. At various times during study and at sacrifice (by CO2 asphyxiation), blood was collected either from the tail vein of an unanesthesized rat or from the vena cava of animals at sacrifice into heparin or EDTA containing tubes for centrifugal separation to prepare plasma. Plasma levels of parameters of lipid and carbohydrate metabolism known by those skilled in the art to be altered coincident with anti-obesity, insulin sensitizing, hyperinsulinemia-reversing, and hepatic steatosis-reversing actions, including but not limited to cholesterol and triglycerides, glucose, insulin, leptin, adiponectin, ketone bodies, free fatty acids, and glycerol, are measured using methods known to those skilled in the art.
The anti-obesity, insulin sensitizing, hyperinsulinemia-reversing, and hepatic steatosis-reversing potential of compounds of the present invention are exemplified through the actions of example compound I-181. […] Results of the reduction in total body weight measurements after treatment of high fat diet-fed DIO rats with compound I-181 are shown in FIG. 11. The degree of body weight reduction paralleled plasma drug levels measured at the end of the study. […] The plasma leptin levels for animals receiving the standard chow diet (lean controls) were also evaluated to determine the extent of parameter normalization produced by compound I-181. […] Results of the reduction in plasma insulin measurements after treatment of high fat diet-fed DIO rats with compound I-181 are shown in FIG. 12. […] Results of the reduction in hepatic triglyceride and cholesterol measurements after treatment of high fat diet-fed DIO rats with compound I-181 are shown in FIG. 13. […] Results of diet-induced obesity studies measuring the effect of compound I-181 on plasma cholesterol and plasma triglycerides are shown in Table 4 below. Data shown are mean values for n=14 animals per group±SEM.

Assay [2] deals with HepG2 cells. The assay is described as follows: [14C] Acetate Incorporation HepG2 Cellular Assay. It counts as cell-based. The settings on record: Hep-G2 cells, FIG. 7. How it is done: Compounds of the present invention were evaluated in a [^14C] Acetate Incorporation Assay. An exemplary procedure for the assay, which measures the incorporation of isotopically labeled acetate into fatty acids, follows. HepG2 cells were maintained in T-75 flasks containing DMEM supplemented with 2 mM 1-glutamine, penicillin G (100 units/ml), streptomycin 100 μg/ml with 10% FBS and incubated in a humidified incubator with 5% CO2 at 37° C. Cells were fed every 2-3 days. On Day 1. cells were seeded in 24 well plates at a density of 1.2×10^5 cells/ml/well with the growth medium. On Day 3 the medium was replaced with fresh medium containing 10% FBS. On Day 4 the medium was replaced with 0.5 ml of fresh medium containing test compound (in DMSO; final [DMSO] is 0.5%) and the cells were incubated at 37° C. for 1 hour. To one copy of plate, 4 ul of [2-^14C]acetate (56 mCi/mmol; 1 mCi/ml; PerkinElmer) was added and the cells were incubated at 37° C., 5% CO2 for 5 hrs. To a second copy of plate, 4 ul of cold acetate were added and the cells were incubated at 37° C., 5% CO2 for 5 hrs. This plate was used for protein concentration measurement. Medium was removed and placed in a 15 ml centrifuge tube (BD, Falcon/352096). Cells were rinsed with 1 ml PBS, then aspirated, and the rinse and aspiration steps were repeated. 0.5 ml of 0.1N NaOH were added to each well and let sit at RT to dissolve cell monolayer. The remaining cell suspension was pooled with medium. For the protein determination plate, an aliquot was removed for protein determination (25 ul). […] 5 ml petroleum ether was added per tube, shaken vigorously, centrifuged at 1000 rpm for 5 min, and 500 uL of the petroleum ether layer was transferred to tubes for Microbeta reading, then 2 ml Aquasol-2 were added to each tube, the tubes were shaken and counted with a Microbeta Liquid Scintillation Counter (Perkin Elmer).
The remaining petroleum ether layer was discarded and the aqueous phase reserved for fatty acid extractions. […] 2 ml of Aquasol-2 was added to each vial, and the vials were shaken and counted on a scintillation counter.

Where [3] appears, read: high-fat diet rats, 3, 10, 30 mg/kg once daily oral gavage.

In the case of `COc1ccccc1[C@H](Cn1c(=O)n(C(C)(C)C(=O)O)c(=O)c2c(C)c(-c3ncco3)sc21)OC1CCOCC1` [I-181, 2-[1-[2-(2-methoxyphenyl)-2-(oxan-4-yloxy)ethyl]-5-methyl-6-(1,3-oxazol-2-yl)-2,4-dioxo-1H,2H,3H,4H-thieno[2,3-d]pyrimidin-3-yl]-2-methylpropanoic acid], in assay [1] (setting [3]), the plasma glucose levels result is recorded as “no concomitant reduction in plasma glucose levels” and the plasma leptin levels result was “reduced by all compound I-181 doses evaluated”. Further, in assay [1] (high-fat diet rats, 3, 10, 30 mg/kg once daily oral gavage, FIG. 11), the “total body weight relative to vehicle-treated control animals” value is on record as “dose-dependent reduction in total body weight”. Besides, the plasma insulin levels result in assay [1] (high-fat diet rats, 3, 10, 30 mg/kg once daily oral gavage, FIG. 12) is reported as “reduced to near lean control levels by all three compound I-181 doses”. Besides, the hepatic triglycerides result in assay [1] (high-fat diet rats, 3, 10, 30 mg/kg once daily oral gavage, FIG. 13) is given as “reduced in a dose-dependent manner”. The “hepatic triglycerides at the highest dose” value in assay [1] (high-fat diet rats, highest dose evaluated (30 mg/kg)) is given as “normalized to lean control levels by the highest dose evaluated”. Besides, the “incorporation of isotopically labeled acetate into fatty acids” value in assay [2] was “inhibit incorporation of isotopically labeled acetate into fatty acids”.

The values above are taken from patent US9453026B2, “ACC inhibitors and uses thereof” (Gilead Apollo, Inc., priority 2011, dated 2016).
